# According to PubChem BioAssay AID2060489 (Molecular Pharmacology Branch, DTP, NCI, 2025):
# Tested on: 922993-354-T-J3-PDC complex spheroids, viability
# Assay: Anticancer human tumor 922993-354-T-J3-PDC patient-derived endometrial carcinoma cell line growth inhibition [GQUAD]
# Conditions: for IC50: curve of first compound; for viability, T/C: stronger effect = lower value
# Source text: DNA G-quadruplex Stabilizer Agents in Combinations in Complex Spheroids
# A high-throughput screen of multi-cell type tumor spheroids was designed to identify active combinations of DNA G-quadruplex stabilizer agents and targeted small molecules. Complex spheroids include a stromal component modeled by human endothelial cells (HUVEC) and fibroblasts modeled by human mesenchymal stem cells (MSCs). The concentration ranges selected for each drug and investigational agent were based upon clinically achievable concentrations if the clinical Cmax of the agent was known.
# Compounds. The drugs and investigational agents: pidnarulex (CX-5461; NSC782164), APTO-253 (NSC789042), BRACO-19 (NSC847499), peposertib (NSC802822), ceralasertib (NSC780249), elimusertib (NSC800525), camonsertib (NSC841442), AZD-1390 (NSC803789), olaparib (NSC753686), talazoparib (NSC767125), ART-558 (NSC835418), sotorasib (NSC818433), MRTX-1133 (NSC836407), SN-38 (NSC673596), topotecan (NSC609699), etoposide (NSC141540), doxorubicin (NSC123127), gemcitabine (NSC613327), 5-fluorouracil (NSC19893), paclitaxel (NSC125973), vemurafenib (NSC761431), panobinostat (NSC761190), R-306465 (JNJ-16241199; NSC773264), adavosertib (NSC754352), TP-3654 (NSC805149), carboplatin (NSC241240), KSQ-4279 (NSC840948), and staurosporine (NSC755774) were obtained from the National Cancer Institute (NCI) Developmental Therapeutics Program Chemical Repository (34). The FDA-approved anticancer drug set is available from the NCI Developmental Therapeutics Program. […] The stock solutions were prepared in dimethyl sulfoxide (DMSO, Sigma-Aldrich, St. Louis, MO, cat. D2650) at 800-fold the tested concentration and stored at -70 degrees C prior to their use. All drugs and investigational agents were tested over a range starting from a high concentration at or near the clinical Cmax and decreasing in half-log increments. If the clinical Cmax for an agent had not been determined, the highest concentration tested was 10 microM.
# 2.3 Cell Culture. All cells were maintained in an incubator at 37 degrees C and 5% CO2 with 95% humidity. The PDC lines were cultured according to standard operating procedures established by the NCI PDMR. All PDCs were thawed and cultured in Matrigel-coated flasks prepared with a working solution of 1X Ham's F-12 nutrient mix, without supplementation (Invitrogen, cat. 11765054), 100 U/mL penicillin-streptomycin (Invitrogen, cat. 15140122), and 2.5% Matrigel (Corning Inc., cat. 354248) for the first three passages. The 857933-349-R-J2-PDC line was cultured in 6C/Colon 1B media, which includes advanced DMEM/F-12 (Thermo Fisher Scientific, cat. 12634028), 10 mM HEPES (Thermo Fisher Scientific, cat. 15630080), 1X GlutaMAX supplement (Thermo Fisher Scientific, cat. 35050061), 0.1 mg/mL primocin (InvivoGen, cat. ant-pm-2), 10% defined fetal bovine serum, heat inactivated (HyClone Laboratories Inc., cat. SH30070.03HI), 50% L-WRN conditioned media (ATCC, cat. CRL-3276), 1.25 mM N-Acetyl-L-cysteine (Sigma-Aldrich, cat. A9165), 10 mM nicotinamide (Sigma-Aldrich, cat. N0636), 1X B-27 supplement (Thermo Fisher Scientific, cat. 17504044), 1X N-2 supplement (Thermo Fisher Scientific, cat. 17502048), 10 microM Y-27632 dihydrochloride (Tocris Bioscience, cat. 1254), and 50 ng/mL human EGF recombinant protein (Thermo Fisher Scientific, cat. PHG0311). The 485176-168-R4-J1-PDC line was cultured in Panc media, which includes all 6C/Colon 1B media components plus 100 ng/mL human FGF-10 (Thermo Fisher Scientific, cat. 100-26), 500 nM SB-431542 (Selleckchem, cat. S1067), and gastrin (Tocris, cat. 3006).
# […]
# 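Also: spheroids exposed to compounds for seven days.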
# 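For viability, T/C in this document: 100% = DMSO vehicle control viability.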
structure (smiles),measurement,setting,value
CCc1c2c(nc3ccc(O)cc13)-c1cc3c(c(=O)n1C2)COC(=O)[C@]3(O)CC + CN(C)c1ccc(Nc2c3ccc(NC(=O)CCN4CCCC4)cc3nc3cc(NC(=O)CCN4CCCC4)ccc23)cc1,IC50,second compound 0.0316 µM,6.5 nM
same,IC50,second compound 0.1 µM,6.99 nM
same,IC50,second compound 0.316 µM,6.11 nM
same,IC50,second compound 1 µM,6.51 nM
same,IC50,second compound 3.16 µM,6.83 nM
same,IC50,second compound 10 µM,8.98 nM
same,"viability, T/C","second compound 0.0316 µM, first compound 0.000999 µM",99.2%
same,"viability, T/C","second compound 0.0316 µM, first compound 0.00316 µM",78.4%
same,"viability, T/C","second compound 0.0316 µM, first compound 0.00999 µM",34.1%
same,"viability, T/C","second compound 0.0316 µM, first compound 0.0316 µM",10.4%
same,"viability, T/C","second compound 0.0316 µM, first compound 0.0999 µM",10.1%
same,"viability, T/C","second compound 0.0316 µM, first compound 0.316 µM",20.1%
same,"viability, T/C","second compound 0.1 µM, first compound 0.000999 µM",96.4%
same,"viability, T/C","second compound 0.1 µM, first compound 0.00316 µM",94.1%
same,"viability, T/C","second compound 0.1 µM, first compound 0.00999 µM",30%
same,"viability, T/C","second compound 0.1 µM, first compound 0.0316 µM",7.58%
same,"viability, T/C","second compound 0.1 µM, first compound 0.0999 µM",12%
same,"viability, T/C","second compound 0.1 µM, first compound 0.316 µM",16.8%
same,"viability, T/C","second compound 0.316 µM, first compound 0.000999 µM",90.6%
same,"viability, T/C","second compound 0.316 µM, first compound 0.00316 µM",74.3%
same,"viability, T/C","second compound 0.316 µM, first compound 0.00999 µM",32.5%
same,"viability, T/C","second compound 0.316 µM, first compound 0.0316 µM",9.44%
same,"viability, T/C","second compound 0.316 µM, first compound 0.0999 µM",12.3%
same,"viability, T/C","second compound 0.316 µM, first compound 0.316 µM",13.8%
same,"viability, T/C","second compound 1 µM, first compound 0.000999 µM",96%
same,"viability, T/C","second compound 1 µM, first compound 0.00316 µM",77.5%
same,"viability, T/C","second compound 1 µM, first compound 0.00999 µM",34.4%
same,"viability, T/C","second compound 1 µM, first compound 0.0316 µM",12.8%
same,"viability, T/C","second compound 1 µM, first compound 0.0999 µM",11.8%
same,"viability, T/C","second compound 1 µM, first compound 0.316 µM",17.7%
same,"viability, T/C","second compound 3.16 µM, first compound 0.000999 µM",96.7%
same,"viability, T/C","second compound 3.16 µM, first compound 0.00316 µM",79.8%
same,"viability, T/C","second compound 3.16 µM, first compound 0.00999 µM",36.3%
same,"viability, T/C","second compound 3.16 µM, first compound 0.0316 µM",11.4%
same,"viability, T/C","second compound 3.16 µM, first compound 0.0999 µM",12.9%
same,"viability, T/C","second compound 3.16 µM, first compound 0.316 µM",20.6%
same,"viability, T/C","second compound 10 µM, first compound 0.000999 µM",111%
same,"viability, T/C","second compound 10 µM, first compound 0.00316 µM",89.1%
same,"viability, T/C","second compound 10 µM, first compound 0.00999 µM",49.3%
same,"viability, T/C","second compound 10 µM, first compound 0.0316 µM",14.4%
same,"viability, T/C","second compound 10 µM, first compound 0.0999 µM",17.4%
same,"viability, T/C","second compound 10 µM, first compound 0.316 µM",23.3%
